# Measured values published in patent US20250290045A1, “SMALL MOLECULES AND METHODS FOR MODULATING TEMPORAL CONTROL OF GELATION AND HYDROGEL MECHANICS” (The Board of Trustees of the Leland Stanford Junior …, priority 2022, published 2025).
# Where “and” joins values, the source holds several entries; their conditions need not be identical. Equal values may be shown once. Entries after “also recorded” stand apart in the source; their conditions may differ.
# Experiments:
# [1] = Storage modulus of HELP hydrogel with competitor, oscillatory shear rheology; format: physicochemical; details: for HELP modulus: 0 mM control ~3 kPa; for storage modulus (G) of HELP hydrogel, dose response: FIG. 11C, D, increasing competitor concentration, n=3; for fold change in modulus: HELP system, relative to no competitor
# Protocol: The term “storage modulus” as used herein may be used interchangeably with the term “stiffness”. Storage modulus refers to the ratio of the elastic stress to strain and indicates a material's ability to store energy. The storage modulus may be measured using oscillatory shear rheology
# The storage modulus of the HELP hydrogels were measured using oscillatory shear rheology.
# The HELP hydrogel composition was 1 wt % ELP-Hydrazine (fully modified) and 1 wt % HA-Aldehyde (12% modified). Hydrazinoacetic acid was added to HELP hydrogels in four separate final concentrations, 0 mM, 5 mM, 10 mM and 20 mM and the storage modulus was measured over the course of 30 minutes.
# The catalyst agent was 2-(Aminomethyl)benzimidazole and the competitor agent was butyraldehyde. The competitor agent was added at HELP hydrogels at a final concentration of 10 mM and the catalyst agent was added to a final concentration of 0.10 and 25 mM. The composition of the HELP hydrogel was 2 wt % ELP-Hydrazine (fully modified) and 1 wt % HA-Benzaldehyde (30% modified).
# To initially assess the impact of a competitor on hydrogel stiffness, it was proposed that the effect on crosslinking density will depend upon the relative strength of the two competing reactions: (1) crosslinking-site and competitor and (2) crosslinking reaction (FIG. 11A). It was predict that as the relative strength of the competitor reaction (Keq^1) to crosslinking reaction (Keq^2) increases, there will be a greater disruption of crosslinks. To validate this, the impact of competitor Keq on the modulus of HELP formed from precursor solutions of HA-BZA and ELP-HYD at a 1:1 BZA to HYD ratio was determined. To minimize off-target reactions, competitors were added to the precursors solution that has the same functionality, i.e., hydrazine competitors added to ELP-HYD, aldehyde competitors added to HA-BZA. At 10 mM of competitor, which represents a ratio of 4:3 of competitor to crosslinking sites, all competitors led to a significant decrease in the HELP modulus compared to the 0 mM control (FIG. 11B). Based upon the hypothesis that the relative strength of the reactions will dictate crosslinking disruption, a larger decrease in modulus with competitors that result in an aromatic hydrazone (Keq^1/Keq^2˜10^0), double aromatic hydrazone (Keq^1/Keq^2˜10^1) and alkyl hydrazone (Keq^1/Keq^2˜10^2) should be seen.
# The hydrogel modulus response to increasing concentrations of competitors was next examined. The decrease in modulus is dependent upon the concentration of the competitor. To examine this dose-dependent response, the competitors with the lowest (HydAA, aromatic hydrazone) and highest (Butanal, alkyl hydrazone) Keq were selected. Increasing the concentration of HydAA from 5, 10, and 20 mM further reduced the crosslinking density and modulus (2.3, 1.8, 1.3 kPa) in a concentration dependent manner (FIG. 11C). A similar response with Butanal was seen as we increase the concentration from 5 to 10 mM (FIG. 11D).
# [2] = Hydrazone reaction rates of competitors with model reactants, UV spectroscopy; format: physicochemical; details: for k1 (forward reaction rate) / k−1 (×10^−4) (reverse reaction rate): 50 μM competitor and 50 μM model reactant (BZA or HydAA), saline solution, 25° C., mean (standard deviation), n = 4; for k−1 / k1: unit not given
# Protocol: To quantify the extent that side groups impact reaction parameters, the forward (k1) and reverse (k−1) reaction rates were measured for each competitor at 50 μM (Table 2). For these reactions, the complementary reactant was chosen to be 50 μM of either benzaldehyde (BZA) or hydrazinoacetic acid (HydAA), because they are the crosslinking functionalities of HELP, and can provide key insight into DCC interactions without the complexity of the full HA and ELP polymers. (Winne, Leibler et al. 2019) The formation of a hydrazone bond was observed via absorbance with UV spectroscopy and converted to a concentration over time. An analytical solution to a second order reaction rate, assuming equal concentrations of reactants, was fit to the concentration as a function of time. (Dirksen, Dirksen et al. 2006, Mckinnon, Domaille et al. 2014)
# [3] = Theoretical half-time to equilibrium of the competitor reaction; details: 10 mM; calculated from kinetic reaction parameters
# Protocol: Using the kinetic reaction parameters, the theoretical half-time (t1/2) to was calculated to reach equilibrium of the competitor reaction at a concentration of 10 mM (FIG. 12C). […] This is consistent with the rationale that Butanal increases the gelation time because it is capable of rapidly reacting with the crosslinking sites, preventing them from participating in gelation. […] Using a simplified half-time model of just the competitor reaction, the user is able to qualitatively capture the measured gelation times of the complex competitor and crosslinking hydrogel system.
# [4] = HELP hydrogel homogeneity by fluorescent dye distribution; format: physicochemical; details: 10 mM competitor vs rapidly gelling HELP without competitor; stiff (~3.5 kPa) HELP
# Protocol: We propose that by using a competitor to increase gelation times, we can overcome the limitations of rapidly gelling hydrazone-crosslinked HELP. We compared the macroscopic structure of a stiff (˜3.5 kPa) HELP formulation with and without Butanal. Without a competitor, the hydrogel rapidly gelled, resulting in a heterogenous hydrogel with nonuniform distribution of polymer. However, addition of 10 mM Butanal allowed for adequate mixing of the polymers and a homogenous hydrogel (FIG. 12E). To quantitatively evaluate the heterogeneity of HELP hydrogels with or without a competitor, we added a fluorescent dye and compared the spatial distribution of the fluorescent signal. […] By using a rapidly reaction competitor to slow down gelation kinetics, we have developed a solution to the challenge of inhomogeneous DCC hydrogels, and produced a uniform HELP hydrogel.
# [5] = Gelation time of HELP hydrogel with competitor; format: physicochemical; details: for gelation time: 0 mM 42.3±5.5 s; for effect on gelation time of HELP hydrogel: FIG. 12A, B, n=3-4, one-way ANOVA
# Protocol: The HELP hydrogel composition was 2 wt % ELP-Hydrazine (fully modified) and 1 wt % HA-Benzaldehyde (30% modified).
# Based upon the observed and predicted effect of the competitor on hydrogel modulus, it was reasoned that transient disruption of crosslinking would alter gelation kinetics. The competitor kinetics delays the time to reach a percolated polymer network in a dose-dependent manner. Addition of a high concentration (20 mM) of a relatively slow reacting competitor Keq competitor (HydAA, k1˜10^−1, Keq˜ 10^3) results in a modest and nonsignificant increase in gelation time (tg=48.3±3.1 s), though it softened the hydrogel modulus from ˜3 kPa to 1.3 kPa. (FIG. 12A). […] The difference in gelation times can be attributed to the difference in forward reaction rate and equilibrium constants of the competitors, which both differ by over 2 orders of magnitude between Butanal and HydAA.
# [6] = 10 mM competitor, HA-BZA and ELP-HYD at 1:1 BZA to HYD
HELP modulus ([1]; 5 mM competitor) [kPa],"HELP modulus [1, 6] [kPa]","storage modulus (G) of HELP hydrogel, dose response [1]",fold change in modulus [1] [fold],gelation time ([5]; 10 mM competitor),SMILES,k1 (forward reaction rate) [2],k−1 (×10^−4) (reverse reaction rate) [2],theoretical half-time (t1/2) to reach equilibrium of the competitor reaction [3] [min],k−1 [2],effect on gelation time of HELP hydrogel [5],k1 [2],further results
2.3,,dose-dependent decrease,0.6,did not significantly impact gelation,"NNCC(=O)O [Hydrazinoacetic acid, hydrazinoacetic acid]",0.276 (0.070) M^−1 s^−1,1.71 (0.280) ×10^−4 s^−1,4.23 ± 1.33,~10^−4,does not significantly increase,~10^−1,"HELP modulus ([1]; 10 mM competitor, HA-BZA and ELP-HYD at 1:1 BZA to HYD, listed as HydAA): 1.75±0.3 kPa and 1.8 kPa and 1.75 kPa; HELP modulus ([1]; 20 mM competitor): 1.3 kPa; storage modulus of HELP hydrogels, dose response ([1]; FIG. 2, 0, 5, 10 and 20 mM): reduced the storage modulus in a dose dependent manner; time to reach the plateau storage modulus ([1]; FIG. 3, 1 wt % ELP-Hydrazine, 1 wt % HA-Aldehyde (12% modified), 0, 5, 10, 20 mM): increased the time to reach the plateau storage modulus; storage modulus of HELP hydrogels over time ([1]; FIG. 3, 1 wt % ELP-Hydrazine, 1 wt % HA-Aldehyde (12% modified), 0, 5, 10, 20 mM, 30 minutes): reduced the storage modulus of HELP hydrogels in a dose dependent manner; gelation time (tg) ([5]; 20 mM HydAA (slow-reacting competitor)): 48.3 ± 3.1 s; gelation time, dose response ([5]; FIG. 4, 0, 5, 10 mM, 2 wt % ELP-Hydrazine, 1 wt % HA-Benzaldehyde (30% modified)): increased the gelation time in a dose dependent manner; increase of gelation time ([5]; FIG. 4, 10 mM, 2 wt % ELP-Hydrazine, 1 wt % HA-Benzaldehyde (30% modified)): approximately 30 seconds"
,0.86±0.04,,,,"NNc1ccc(C(=O)O)cc1 [Hydrazinobenzoic acid, 4-hydrazinobenzoic acid]",2.10 (0.40) M^−1 s^−1,1.00 (0.077) ×10^−4 s^−1,,1.00±0.077×10^−4,,2.10±0.400,

# The next lines start with the molecule.
SMILES,HELP modulus ([1]; 5 mM competitor) [kPa],"HELP modulus [1, 6] [kPa]","storage modulus (G) of HELP hydrogel, dose response [1]",fold change in modulus [1] [fold],gelation time ([5]; 10 mM competitor),k1 (forward reaction rate) [2],k−1 (×10^−4) (reverse reaction rate) [2],theoretical half-time (t1/2) to reach equilibrium of the competitor reaction [3] [min],k−1 [2],effect on gelation time of HELP hydrogel [5],k1 [2],further results
NCc1nc2ccccc2[nH]1 [2-(Aminomethyl)benzimidazole],,,,,,,,,,,,"storage modulus of HELP hydrogels with catalyst and competitor ([1]; FIG. 9, catalyst 0.10 and 25 mM with 10 mM butyraldehyde, 24 hours diffusion into preformed hydrogel, 2 wt % ELP-Hydrazine, 1 wt % HA-Benzaldehyde (30% modified)): reduced in a dose-dependent manner"
"O=Cc1ccccc1 [Benzaldehyde, benzaldehyde]",,,,,,0.276 (0.070) M^−1 s^−1,1.71 (0.280) ×10^−4 s^−1,4.23 ± 1.33,,,,
"CCCC=O [Butyraldehyde, butyraldehyde]",1.75,0.29±0.2,dose-dependent decrease,0.1,92.3 ± 5.1 s,59.9 (5.49) M^−1 s^−1,4.49 (1.07) ×10^−4 s^−1,0.0265 ± 0.00233,4.49±1.07×10^−4,significantly increases gelation time in a dose-dependent manner,,"HELP hydrogel formation ([1]; 20 mM competitor (2.7× crosslinking sites), listed as Butanal): disrupt formation of a hydrogel; also recorded: inhibition of HELP gel formation; variance of fluorescence intensity (hydrogel heterogeneity) [4]: significantly lower variance; k1 ([2]; listed as Butanal): 59.9±5.49; k1 ([2]; listed as Butunal): ~10^1; increase of gelation time ([5]; 5 mM competitor): ~1.7 fold; gelation time ([5]; 5 mM competitor): 74.8 ± 10.0 s"
"NNCCO [Hydrazinoethanol, 2-hydrazinoethanol]",,,,,,0.690 (0.301) M^−1 s^−1,1.12 (0.469) ×10^−4 s^−1,,~10^−4,,~10^−1,
